Experimental data: US20120129179A1, “SCN5A SPLICING FACTORS AND SPLICE VARIANTS FOR USE IN DIAGNOSTIC AND PROGNOSTIC METHODS” (THE BOARD OF TRUSTEES OF THE UNIVERSITY OF ILLINOIS, priority 2009, published 2012)

Columns and labels:
[1] = target: RBM25 (Homo sapiens, UniProt P49756); experiment: Gel mobility shift assay; assay type: binding; conditions: 0.2 nM RNA, variable amounts of protein, 30 min at 4° C.
Description: (§1) Gel mobility shift assays: The biotinylated wild-type ([…]) and mutant ([…]) RNA substrates (SEQ ID NOs: 32 and 33, respectively) were synthesized by Invitrogen. Binding of biotinylated RNA to RBM25 was achieved by incubating 0.2 nM RNA and variable amounts of protein for 30 min at 4° C. in 20 μL of binding buffer (10 mM Tris-HCl, 10 mM HEPES, 100 mM NaCl, 0.1% Triton X-100, 2 mM MgCl2, 1.5 mM dithiothreitol (DTT) pH 7.5, 7% glycerol). For the competition assays, a molar excess of unlabeled competitor RNAs at various fold levels was added to the pre-incubated reaction mixture. Samples were fractionated in a native 5% polyacrylamide gel, transferred to Hybond-N+nylon membrane (Amersham Biosciences), and detected with a LightShift chemiluminescent electrophoretic mobility shift assay kit (Pierce) by following the manufacturer's protocol.
(§2) Gel mobility shift assays were performed as described previously with modification (Shang et al., Am. J. Physiol. Cell. Physiol., 292:C886-95, 2007, the disclosure of which is incorporated herein by reference in its entirety.). The biotinylated wild-type ([…]) and mutant ([…]) RNA substrates (SEQ ID NOs: 32 and 33, respectively) were synthesized. Binding of biotinylated RNA to RBM25 was achieved by incubating 0.2 nM RNA and variable amounts of protein for 30 min at 4° C. in 20 μL binding buffer. […]

[2] = system: hLuc7A; experiment: Real-time RT-PCR of hLuc7A mRNA in Jurkat cells and H9 hESC-cardiomyocytes; assay type: cell-based, human; conditions: Ang II-treated (100 nmol/L)
Description: (§3) Cell culture assays: Jurkat T cell clones E6.1 (ATCC, Manassas, Va.) were cultured at 37° C. and 5% CO2 in RPMI 1640 medium supplemented with 10% heat inactivated fetal calf serum, 4 mM glutamine, 75 units/mL streptomycin and 100 units/mL penicillin. WA09 (H9) human undifferentiated ESCs were obtained through the National Stem Cell Bank and maintained on irradiated mouse embryonic fibroblasts at 37° C. with 5% CO2. The culture medium consisted of DMEM/F12 (Invitrogen, Carlsbad, Calif.) supplemented with 15% knockout serum, 1% non-essential amino acids, 1 mmol/L L-glutamine, 0.1 mmol/L β-mercaptoethanol, and basic fibroblast growth factor of 20 ng/mL.
(§4) Real-Time PCR quantification: Total RNA was isolated from cultured cells using the Qiagen RNeasy Mini Kit (Valencia, Calif.). Total RNA from human ventricles was isolated using the RNeasy Lipid Tissue Mini Kit (Qiagen). Reverse transcription was carried out at 42° C. for 1 h with Powerscript reverse transcriptase (Roche). β-Actin was used as a reference when making quantitative comparison.
(§5) Because AngII and hypoxia are common in heart failure, we investigated whether these two conditions could influence RBM25 and hLuc7A levels. […] The Jurkat cells and H9 hESC-CMs were divided into three experiment groups: normoxia, hypoxia-treated (1% O2), and Ang II-treated (100 nmol/L). […]

[3] = system: RBM25; experiment: Real-time RT-PCR of RBM25 mRNA in Jurkat cells and H9 hESC-cardiomyocytes; assay type: cell-based, human; conditions: Ang II-treated (100 nmol/L)
Description: as §3, §4, §5

[4] = system: SCN5A variant E28C; experiment: RT-PCR of SCN5A variant E28C; assay type: cell-based, human; conditions: Ang II treatment
Description: as §4
(§6) Changes in hLuc7A and RBM25 correlated with SCN5A E28C and E28D variant abundances. Under hypoxia, the expression of SCN5A variants E28C and E28D were increased by 373.5±5.7% and 636.2±7.6%, respectively (p<0.05), while the expressions of the full length SCN5A transcript was decreased by 64.6±4.9% (p<0.05). With Ang II treatment, the expressions of the variants were increased by 291.4±5.2% and 433.7±6.5% for E28C and E28D, respectively (p<0.05), while the expression of the full length SCN5A transcipt was decreased by 78.9±5.4% (p<0.05).
(§7) The siRNA knockdown efficiency was estimated by both RT-PCR and Western blot and was not less than 50%. The expressions of SCN5A and the variants E28C and E28D were measured by RT-PCR in all experiment groups at time points of maximal siRNA effect.

[5] = system: full length SCN5A transcript; experiment: RT-PCR of full length SCN5A transcript; assay type: cell-based, human; conditions: Ang II treatment
Description: as §4, §6
Hypoxia and AngII were used to increase abnormal SCN5A splicing. The expressions of PERK and sXBP1 were measured by RT-PCR. […] To test if this upregulation of one arm of the UPR was mediated by SCN5A mRNA variants, exogenous E28C and E28D were introduced. The Jurkat cells were divided into four experiment groups: normal control, empty vector control, variant E28C overexpressioned cells, and variant E28D overexpressioned cells. […]

[6] = system: RBM25; experiment: Western blot of RBM25 in Jurkat cells; assay type: cell-based, human; conditions: Ang II 100 nmol/L, vs control group
Text: (§8) Western blot analysis: The Mini-PROTEAN® Tetra Electrophoresis System from BioRad was used for Western blot analysis. Anti-Nav1.5 antibody, recognizing all channel variants, was provided by Dr. Peter Mohler (University of Iowa, Iowa City, Iowa). Anti-RBM25 antibody was provided by Dr. Huang (Dana-Farber Cancer Institute, Harvard, Boston, Mass.). Anti-PERK and hLuc7A antibodies were purchased from R&D Systems (Minneapolis, Minn.) and Millipore, (Billerica, Mass.).
(§9) The upregulation of splicing factors RBM25 and hLuc7A in Jurkat cells was further confirmed by Western blot. The Jurkat cells were divided into three experiment groups: normoxia, hypoxia-treated (1% O2), and Ang II-treated (100 nmol/L). The expressions of RBM25 and hLuc7A were analyzed by Western blot at three time points (12 h, 24 h, and 48 h) for hypoxia-treated group and at four time points (24 h, 48 h, 72 h, and 96 h) for Ang II-treated group. […] The density of hLuc7A was increased by 242.3±9.5%, 236.1±8.4% and 268.8±9.8% in hypoxia-treated group at time points 12 h, 24 h and 48 h, respectively, and was increased by 256.3±9.1%, 246.5±8.6%, 279.7±9.3% and 283.6±9.9% in Ang II-treated group at time points 24 h, 48 h, 72 h and 96 h, respectively (p<0.05).

[7] = system: PERK; experiment: RT-PCR of PERK expression; assay type: cell-based, human; conditions: Ang II-treated, 48 h
Description: as §4
(§10) Hypoxia and AngII were used to increase abnormal SCN5A splicing. The expressions of PERK and sXBP1 were measured by RT-PCR. […] To test if this upregulation of one arm of the UPR was mediated by SCN5A mRNA variants, exogenous E28C and E28D were introduced. The Jurkat cells were divided into four experiment groups: normal control, empty vector control, variant E28C overexpressioned cells, and variant E28D overexpressioned cells. The expression of PERK was measures by RT-PCR in each group at the time point 48 h. […] The upregulation of PERK in Jurkat cells was further confirmed by Western blot.

[8] = system: major UPR components (PERK, calnexin, CHOP); experiment: Induction of major UPR components in hESC-CMs; assay type: cell-based, human; conditions: 100 nmol/L Ang II
Text: The correlation of expression changes among PERK, major human embryonic stem cell-derived cardiomyocytes (hESC-CMs). […] E28C and E28D constructs were transduced to overexpress the truncated proteins.
Finally, downregualtion of PERK prevented the loss of full-length SCN5A mRNA abundance with these stimuli.

[9] = system: PERK; experiment: Western blot of PERK in Jurkat cells; assay type: cell-based, human; conditions: Ang II-treated, vs control group
Text: as §8, §10

[10] = system: sXBP1; experiment: RT-PCR of sXBP1 expression; assay type: cell-based, human; conditions: Ang II-treated
Description: as §4, §10

[11] = system: SCN5A variant E28D; experiment: RT-PCR of SCN5A variant E28D; assay type: cell-based, human; conditions: Ang II treatment
Description: as §4, §6, §7

[12] = system: hLuc7A; experiment: Western blot of hLuc7A in Jurkat cells; assay type: cell-based, human; conditions: Ang II 100 nmol/L, vs control group
Text: as §8, §9

[13] = target: T1, RBM25 (UniProt P49756 SEQ:1-843); experiment: EMSA; concentration-dependent; 0.2 nM RNA, 10 mM Tris-HCl, 10 mM HEPES, 100 mM NaCl, 2 mM MgCl2, pH 7.5, 4 C; unlabeled competitor assay also run; conditions: label: biotin
Description: as §1, with “MgCl₂,” for “MgCl2,”
as §2

[14] = target: T1, RBM25; experiment: EMSA; mutated canonical site; 0.2 nM RNA, 100 mM NaCl, 2 mM MgCl2, pH 7.5, 4 C; conditions: label: biotin
Description: as §1, with “MgCl₂,” for “MgCl2,”
as §2

RBM25 (Homo sapiens, UniProt P49756), sequence (P49756 whole entry): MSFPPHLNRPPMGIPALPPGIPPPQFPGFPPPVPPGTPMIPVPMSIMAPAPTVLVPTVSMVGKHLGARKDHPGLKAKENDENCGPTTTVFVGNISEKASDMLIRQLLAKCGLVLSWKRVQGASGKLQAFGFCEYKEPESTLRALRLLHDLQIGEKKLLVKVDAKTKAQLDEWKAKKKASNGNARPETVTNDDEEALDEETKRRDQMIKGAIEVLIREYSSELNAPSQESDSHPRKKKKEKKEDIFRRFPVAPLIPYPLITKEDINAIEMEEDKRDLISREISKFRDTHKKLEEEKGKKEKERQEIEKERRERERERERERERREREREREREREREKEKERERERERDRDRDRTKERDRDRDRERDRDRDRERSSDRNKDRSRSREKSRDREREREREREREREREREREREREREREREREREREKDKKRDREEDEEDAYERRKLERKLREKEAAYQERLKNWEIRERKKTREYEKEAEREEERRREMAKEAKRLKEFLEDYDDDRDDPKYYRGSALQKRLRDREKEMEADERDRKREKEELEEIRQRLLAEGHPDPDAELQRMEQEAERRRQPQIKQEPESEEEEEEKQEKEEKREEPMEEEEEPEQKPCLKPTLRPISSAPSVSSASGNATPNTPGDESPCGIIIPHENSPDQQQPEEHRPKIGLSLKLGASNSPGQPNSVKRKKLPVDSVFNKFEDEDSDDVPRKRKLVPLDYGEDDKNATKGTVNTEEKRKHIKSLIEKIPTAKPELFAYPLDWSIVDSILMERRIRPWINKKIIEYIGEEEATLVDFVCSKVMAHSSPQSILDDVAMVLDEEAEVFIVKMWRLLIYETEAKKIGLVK
T1 sequence (P49756 whole entry): as above

CAGCAGGUUAGAGGCGGCCU (RNA, backbone not given here; biotinylated RNA) [mutant RNA substrate]
binding of RBM25 to biotinylated RNA substrate [1]: inability of RBM25 to bind

CAGCAGGCGGGCAGCGGCCU (RNA, backbone not given here; biotinylated RNA) [wild-type RNA substrate]
binding of RBM25 to biotinylated RNA substrate [1]: bound the wild-type SCN5A sequence in a concentration-dependent manner

angiotensin II (DRVYIHPF; Angiotensin-2; UniProt P01019 25-32, looked up) [Ang II, angiotensin II, used at 100 nmol/L to treat Jurkat cells and hESC-CMs]
expression of hLuc7A increased by ([2]; ES cells (H9 hESC-CMs)): 181.2±6.7% | expression of hLuc7A increased by ([2]; Jurkat cells): 187.3±7.9% | expression of RBM25 increased by ([3]; ES cells (H9 hESC-CMs)): 42.1±4.7% | expression of RBM25 increased by ([3]; Jurkat cells): 50.8±4.9% | expression of SCN5A variant E28C increased by [4]: 291.4±5.2% | expression of the full length SCN5A transcript decreased by [5]: 78.9±5.4% | density of RBM25 increased by ([6]; 24 h): 209.5±8.8% | density of RBM25 increased by ([6]; 48 h): 212.6±9.7% | density of RBM25 increased by ([6]; 72 h): 181.3±8.3% | density of RBM25 increased by ([6]; 96 h): 198.8±8.7% | expression of PERK increased by [7]: 14.2±0.6 fold | induction of major UPR components (PERK, calnexin, CHOP) [8]: could induce major UPR components | density of PERK increased by [9]: 383.2±10.7% | expression upregulation of sXBP1 [10]: no expression upregulation | expression of SCN5A variant E28D increased by [11]: 433.7±6.5% | density of hLuc7A increased by ([12]; 24 h): 256.3±9.1% | density of hLuc7A increased by ([12]; 48 h): 246.5±8.6% | density of hLuc7A increased by ([12]; 72 h): 279.7±9.3% | density of hLuc7A increased by ([12]; 96 h): 283.6±9.9%

CAGCAGGCGGGCAGCGGCCU (ssRNA) [SCN5A exon 28 wild-type RNA]
binding result [13]: binds

CAGCAGGUUAGAGGCGGCCU (ssRNA) [SCN5A exon 28 mutant RNA]
binding result [14]: no binding
